Experimental data as given in US8217048B2, “Inhibitors of serine proteases, particularly HCV NS3-NS4A protease” (Vertex Pharmaceuticals Incorporated, priority 2003, dated 2012).
pIC50, pKi: −log10 of the molar value.

Columns and labels:
HCV NS3-NS4A protease = molecular target: T1, HCV NS3-NS4A protease (Hepatitis C virus genotype 1a, UniProt P27958); test: HCV Ki Assay (enzyme, Example 5); type: biochemical; conditions: Ki values, tested according to Example 5 (enzyme); 5AB substrate, tNS3 with KK4A
T1 construct: The buffer, KK4A, DTT, and tNS3 were combined
Experimental: HPLC Microbore Method for Separation of 5AB Substrate and Products
NH2-Glu-Asp-Val-Val-(alpha)Abu-Cys-Ser-Met-Ser-Tyr-COOH
A stock solution of 20 mM 5AB (or concentration of your choice) was made in DMSO w/0.2M DTT. This was stored in aliquots at −20 C.
Buffer: 50 mM HEPES, pH 7.8; 20% glycerol; 100 mM NaCl
Total assay volume was 100 μL
The buffer, KK4A, DTT, and tNS3 were combined; distributed 78 μL each into wells of 96 well plate. This was incubated at 30 C for ˜5-10 min.
2.5 μL of appropriate concentration of test compound was dissolved in DMSO (DMSO only for control) and added to each well. This was incubated at room temperature for 15 min.
Initiated reaction by addition of 20 μL of 250 μM 5AB substrate (25 μM concentration is equivalent or slightly lower than the Km for 5AB).
Incubated for 20 min at 30 C.
Terminated reaction by addition of 25 μL of 10% TFA
Transferred 120 μL aliquots to HPLC vials
Separated SMSY product from substrate and KK4A by the following method:
Microbore Separation Method:
Instrumentation: Agilent 1100
Column thermostated chamber G1316A
Diode array detector G1315A
Solvent A=HPLC grade water+0.1% TFA
Solvent B=HPLC grade acetonitrile+0.1% TFA
Stop time: 17 min Post-run time: 10 min.

[1] = system: Cells containing hepatitis C virus (HCV) replicon; test: HCV Replicon Cell Assay (Example 4); type: cell-based; conditions: 48 h, tested according to Example 4 (cell), 50% inhibition of HCV RNA level, 48-hour incubation
Experimental: HCV Replicon Cell Assay Protocol
Cells containing hepatitis C virus (HCV) replicon were maintained in DMEM containing 10% fetal bovine serum (FBS), 0.25 mg per ml of G418, with appropriate supplements (media A).
On day 1, replicon cell monolayer was treated with a trypsin:EDTA mixture, removed, and then media A was diluted into a final concentration of 100,000 cells per ml wit. 10,000 cells in 100 ul were plated into each well of a 96-well tissue culture plate, and cultured overnight in a tissue culture incubator at 37° C.
On day 2, compounds (in 100% DMSO) were serially diluted into DMEM containing 2% FBS, 0.5% DMSO, with appropriate supplements (media B). The final concentration of DMSO was maintained at 0.5% throughout the dilution series.
Media on the replicon cell monolayer was removed, and then media B containing various concentrations of compounds was added. Media B without any compound was added to other wells as no compound controls.
Cells were incubated with compound or 0.5% DMSO in media B for 48 hours in a tissue culture incubator at 37° C. At the end of the 48-hour incubation, the media was removed, and the replicon cell monolayer was washed once with PBS and stored at −80° C. prior to RNA extraction.
Culture plates with treated replicon cell monolayers were thawed, and a fixed amount of another RNA virus, such as Bovine Viral Diarrhea Virus (BVDV) was added to cells in each well, RNA extraction reagents (such as reagents from RNeasy kits) were added to the cells immediately to avoid degradation of RNA. Total RNA was extracted according the instruction of manufacturer with modification to improve extraction efficiency and consistency. Finally, total cellular RNA, including HCV replicon RNA, was eluted and stored at −80° C. until further processing.
A Taqman real-time RT-PCR quantification assay was set up with two sets of specific primers and probe. One was for HCV and the other was for BVDV. Total RNA extractants from treated HCV replicon cells was added to the PCR reactions for quantification of both HCV and BVDV RNA in the same PCR well. Experimental failure was flagged and rejected based on the level of BVDV RNA in each well. The level of HCV RNA in each well was calculated according to a standard curve run in the same PCR plate. The percentage of inhibition or decrease of HCV RNA level due to compound treatment was calculated using the DMSO or no compound control as 0% of inhibition. The IC50 (concentration at which 50% inhibition of HCV RNA level is observed) was calculated from the titration curve of any given compound.

T1 sequence (P27958 1658-1711): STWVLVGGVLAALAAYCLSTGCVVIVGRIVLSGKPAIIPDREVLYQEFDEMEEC
T1 sequence (P27958 1027-1208): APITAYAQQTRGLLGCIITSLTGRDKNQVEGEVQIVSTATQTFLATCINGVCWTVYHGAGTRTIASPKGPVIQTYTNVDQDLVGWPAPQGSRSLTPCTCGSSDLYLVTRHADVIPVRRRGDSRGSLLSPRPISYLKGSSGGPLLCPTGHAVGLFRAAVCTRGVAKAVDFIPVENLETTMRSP

Structure (SMILES)	pKi (HCV NS3-NS4A protease)	pIC50 [1]
CCC[C@H](NC(=O)[C@@H]1C[C@@H](Oc2ccc([N+](=O)[O-])cc2)CN1C(=O)[C@@H](NC(=O)[C@@H](NC(=O)c1cnccn1)C1CCCCC1)C(C)(C)C)C(=O)C(=O)NC1CC1 [Compound 44]	> 7.00	> 6.30
CCC[C@H](NC(=O)[C@@H]1C[C@@H](Oc2cccc(C(=O)OC)c2)CN1C(=O)[C@@H](NC(=O)[C@@H](NC(=O)c1cnccn1)C1CCCCC1)C(C)(C)C)C(=O)C(=O)NC1CC1 [Compound 45]	> 7.00	> 6.30
CCC[C@H](NC(=O)C1C[C@@H](Oc2cc(Cl)ccc2Cl)CN1C(=O)[C@@H](NC(=O)[C@@H](NC(=O)c1cnccn1)C1CCCCC1)C(C)(C)C)C(=O)C(=O)NC1CC1 (stereo partly shown) [Compound 3]	6.52 to 7.00	6.00 to 6.30
CCC[C@H](NC(=O)[C@@H]1C[C@@H](Oc2ccncn2)CN1C(=O)[C@@H](NC(=O)[C@@H](NC(=O)c1cnccn1)C1CCCCC1)C(C)(C)C)C(=O)C(=O)NC1CC1 [Compound 50]	6.52 to 7.00	> 6.30
CCC[C@H](NC(=O)[C@@H]1C[C@@H](Oc2cc(OC)cc(OC)c2)CN1C(=O)[C@@H](NC(=O)[C@@H](NC(=O)c1cnccn1)C1CCCCC1)C(C)(C)C)C(=O)C(=O)NC1CC1 [Compound 24]	> 7.00	> 6.30
CCC[C@H](NC(=O)[C@@H]1C[C@@H](Oc2ccc(S(=O)(=O)NC)cc2)CN1C(=O)[C@@H](NC(=O)[C@@H](NC(=O)c1cnccn1)C1CCCCC1)C(C)(C)C)C(=O)C(=O)NC1CC1 [Compound 48]	6.52 to 7.00	> 6.30
CCC[C@H](NC(=O)[C@@H]1C[C@@H](Oc2cccc3ccccc23)CN1C(=O)[C@@H](NC(=O)[C@@H](NC(=O)c1cnccn1)C1CCCCC1)C(C)(C)C)C(=O)C(=O)NC1CC1 [Compound 36]	> 7.00	> 6.30
CCC[C@H](NC(=O)[C@@H]1C[C@@H](Oc2ccnc3cc(OC)ccc23)CN1C(=O)[C@@H](NC(=O)[C@@H](NC(=O)c1cnccn1)C1CCCCC1)C(C)(C)C)C(=O)C(=O)NC1CC1 [Compound 41]	> 7.00	< 6.00
CCC[C@H](NC(=O)[C@@H]1C[C@@H](Oc2ccc(F)cc2)CN1C(=O)[C@@H](NC(=O)[C@@H](NC(=O)c1cnccn1)C1CCCCC1)C(C)(C)C)C(=O)C(=O)NC1CC1 [Compound 43]	> 7.00	> 6.30
CCC[C@H](NC(=O)[C@@H]1C[C@@H](Oc2ccnc3cc(C(F)(F)F)ccc23)CN1C(=O)[C@@H](NC(=O)[C@@H](NC(=O)c1cnccn1)C1CCCCC1)C(C)(C)C)C(=O)C(=O)NC1CC1 [Compound 67]	> 7.00	> 6.30
CCC[C@H](NC(=O)[C@@H]1C[C@@H](Oc2ccccc2Cl)CN1C(=O)[C@@H](NC(=O)[C@@H](NC(=O)c1cnccn1)C1CCCCC1)C(C)(C)C)C(=O)C(=O)NC1CC1 [Compound 20]	> 7.00	6.00 to 6.30
CCC[C@H](NC(=O)C1C[C@@H](Oc2cc(C(F)(F)F)cc(C(F)(F)F)c2)CN1C(=O)[C@@H](NC(=O)[C@@H](NC(=O)c1cnccn1)C1CCCCC1)C(C)(C)C)C(=O)C(=O)NC1CC1 (stereo partly shown) [Compound 11]	< 6.52	< 6.00
CCC[C@H](NC(=O)C1C[C@@H](Oc2ccc(Cl)cc2Cl)CN1C(=O)[C@@H](NC(=O)[C@@H](NC(=O)c1cnccn1)C1CCCCC1)C(C)(C)C)C(=O)C(=O)NC1CC1 (stereo partly shown) [Compound 2]	6.52 to 7.00	6.00 to 6.30
CCC[C@H](NC(=O)[C@@H]1C[C@@H](Oc2ccc(-c3ccccc3)cc2)CN1C(=O)[C@@H](NC(=O)[C@@H](NC(=O)c1cnccn1)C1CCCCC1)C(C)(C)C)C(=O)C(=O)NC1CC1 [Compound 19]	> 7.00	> 6.30
CCC[C@H](NC(=O)[C@@H]1C[C@@H](Oc2ccccn2)CN1C(=O)[C@@H](NC(=O)[C@@H](NC(=O)c1cnccn1)C1CCCCC1)C(C)(C)C)C(=O)C(=O)NC1CC1 [Compound 58]	> 7.00	> 6.30
CCC[C@H](NC(=O)[C@@H]1C[C@@H](Oc2cccc(C(=O)NC)c2)CN1C(=O)[C@@H](NC(=O)[C@@H](NC(=O)c1cnccn1)C1CCCCC1)C(C)(C)C)C(=O)C(=O)NC1CC1 [Compound 46]	> 7.00	> 6.30
CCC[C@H](NC(=O)[C@@H]1C[C@@H](Oc2ccccc2)CN1C(=O)[C@@H](NC(=O)[C@@H](NC(=O)c1cnccn1)C1CCCCC1)C(C)(C)C)C(=O)C(=O)NC1CC1 [Compound 35]	> 7.00	> 6.30
CCC[C@H](NC(=O)[C@@H]1C[C@@H](Oc2ccc(Cl)c3ccccc23)CN1C(=O)[C@@H](NC(=O)[C@@H](NC(=O)c1cnccn1)C1CCCCC1)C(C)(C)C)C(=O)C(=O)NC1CC1 [Compound 40]	> 7.00	> 6.30
CCC[C@H](NC(=O)C1C[C@@H](Oc2c(F)cccc2F)CN1C(=O)[C@@H](NC(=O)[C@@H](NC(=O)c1cnccn1)C1CCCCC1)C(C)(C)C)C(=O)C(=O)NC1CC1 (stereo partly shown) [Compound 10]	6.52 to 7.00	6.00 to 6.30
CCC[C@H](NC(=O)[C@@H]1C[C@@H](Oc2ccc(C(F)(F)F)cc2)CN1C(=O)[C@@H](NC(=O)[C@@H](NC(=O)c1cnccn1)C1CCCCC1)C(C)(C)C)C(=O)C(=O)NC1CC1 [Compound 13]	6.52 to 7.00	> 6.30
CCC[C@H](NC(=O)[C@@H]1C[C@@H](Oc2cc(F)cc(F)c2)CN1C(=O)[C@@H](NC(=O)[C@@H](NC(=O)c1cnccn1)C1CCCCC1)C(C)(C)C)C(=O)C(=O)NC1CC1 [Compound 55]	6.52 to 7.00	> 6.30
CCC[C@H](NC(=O)[C@@H]1C[C@@H](Oc2cccc(F)c2)CN1C(=O)[C@@H](NC(=O)[C@@H](NC(=O)c1cnccn1)C1CCCCC1)C(C)(C)C)C(=O)C(=O)NC1CC1 [Compound 18]	6.52 to 7.00	> 6.30
CCC[C@H](NC(=O)C1C[C@@H](Oc2cc(F)ccc2F)CN1C(=O)[C@@H](NC(=O)[C@@H](NC(=O)c1cnccn1)C1CCCCC1)C(C)(C)C)C(=O)C(=O)NC1CC1 (stereo partly shown) [Compound 8]	6.52 to 7.00	6.00 to 6.30
CCC[C@H](NC(=O)[C@@H]1C[C@@H](Oc2ccc(CC#N)cc2)CN1C(=O)[C@@H](NC(=O)[C@@H](NC(=O)c1cnccn1)C1CCCCC1)C(C)(C)C)C(=O)C(=O)NC1CC1 [Compound 65]	6.52 to 7.00	> 6.30
CCC[C@H](NC(=O)[C@@H]1C[C@@H](Oc2cccc(S(=O)(=O)NC)c2)CN1C(=O)[C@@H](NC(=O)[C@@H](NC(=O)c1cnccn1)C1CCCCC1)C(C)(C)C)C(=O)C(=O)NC1CC1 [Compound 47]	< 6.52	> 6.30
CCC[C@H](NC(=O)[C@@H]1C[C@@H](Oc2ccc(C(=O)N3CCN(C(=O)OCc4ccccc4)CC3)cc2)CN1C(=O)[C@@H](NC(=O)[C@@H](NC(=O)c1cnccn1)C1CCCCC1)C(C)(C)C)C(=O)C(=O)NC1CC1 [Compound 70]	6.52 to 7.00	6.00 to 6.30
CCC[C@H](NC(=O)C1C[C@@H](Oc2ccccc2C(F)(F)F)CN1C(=O)[C@@H](NC(=O)[C@@H](NC(=O)c1cnccn1)C1CCCCC1)C(C)(C)C)C(=O)C(=O)NC1CC1 (stereo partly shown) [Compound 6]	< 6.52	< 6.00
CCC[C@H](NC(=O)[C@@H]1C[C@@H](Oc2ccc(OC)cc2Cl)CN1C(=O)[C@@H](NC(=O)[C@@H](NC(=O)c1cnccn1)C1CCCCC1)C(C)(C)C)C(=O)C(=O)NC1CC1 [Compound 64]	> 7.00	> 6.30
CCC[C@H](NC(=O)[C@@H]1C[C@@H](Oc2cccc(OC(F)(F)F)c2)CN1C(=O)[C@@H](NC(=O)[C@@H](NC(=O)c1cnccn1)C1CCCCC1)C(C)(C)C)C(=O)C(=O)NC1CC1 [Compound 16]	6.52 to 7.00	6.00 to 6.30
